# Assay results reported in patent US10874743B2, “IRAK degraders and uses thereof” (Kymera Therapeutics, Inc., priority 2017, dated 2020).
# Target: T1, IRAK4 (Homo sapiens, UniProt Q9NWZ3)
# T1 sequence (Q9NWZ3 1-460): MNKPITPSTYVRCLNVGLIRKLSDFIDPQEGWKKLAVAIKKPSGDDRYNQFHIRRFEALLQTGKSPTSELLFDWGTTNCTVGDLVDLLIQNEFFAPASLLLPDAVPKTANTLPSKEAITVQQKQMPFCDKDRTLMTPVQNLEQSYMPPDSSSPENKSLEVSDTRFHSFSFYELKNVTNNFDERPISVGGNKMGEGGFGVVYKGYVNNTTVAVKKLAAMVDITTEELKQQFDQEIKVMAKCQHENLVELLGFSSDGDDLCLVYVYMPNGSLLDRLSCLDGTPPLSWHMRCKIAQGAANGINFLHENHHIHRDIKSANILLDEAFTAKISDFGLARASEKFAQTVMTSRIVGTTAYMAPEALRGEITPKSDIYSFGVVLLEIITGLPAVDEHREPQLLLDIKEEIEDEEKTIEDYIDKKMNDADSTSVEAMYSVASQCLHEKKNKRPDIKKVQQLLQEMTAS
# Assay: OCI-LY-10 degradation assay (western blot, % IRAK4 degraded after 4 hours)
# Format: cell-based
# Design: endogenous in cells; host or cells: OCI-LY10
# Conditions: OCI-LY10 cells, IRAK4 degraded after 4 hours, western blot
# Outline: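 IRAK4 loss after 4 h at 37° C was scored A (>50%), B (>20-50%) or C (<20%) from infrared western blots of RIPA lysates, 20-25 μg protein per lane. Compound was applied at 0.003-10 μM final to OCI-LY10 cells cultured in RPMI-1640 with 20% FBS and 55 μM 2-ME.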
row,SMILES,OCI-LY10 % IRAK4 Degradation
1,"CC(CNc1cccc2c1C(=O)N(C1CCC(=O)NC1=O)C2=O)OCCOCCOCC(F)CNC(=O)c1cnc(Nc2ccc3cnccc3n2)cc1NC1CC1 (centres unmarked) [I-93, 4-(Cyclopropylamino)-N-[3-[2-[2-[2-[[2-(2,6-dioxo-3-piperidyl)-1,3-dioxo-isoindolin-4-yl]amino]-1-methyl-ethoxy]ethoxy]ethoxy]-2-fluoro-propyl]-6-(1,6-naphthyridin-2-ylamino)pyridine-3-carboxamide]",C (<20% degradation)
2,"N#Cc1cnc2c(cnn2-c2cc(NC3CC3)c(C(=O)NCC(F)COCCNCCOCCNc3cccc4c3C(=O)N(C3CCC(=O)NC3=O)C4=O)cn2)c1 (centres unmarked) [I-94, 6-(5-Cyano-1H-pyrazolo[3,4-b]pyridin-1-yl)-4-(cyclopropylamino)-N-(3-(2-((2-(2-((2-(2,6-dioxopiperidin-3-yl)-1,3-dioxoisoindolin-4-yl)amino)ethoxy)ethyl)amino)ethoxy)-2-fluoropropyl)nicotinamide]",B (>20-50% degradation)
3,"N#Cc1cnc2c(cnn2-c2cc(NC3CC3)c(C(=O)NCC(F)COCCOCCNC(=O)COc3cccc4c3C(=O)N(C3CCC(=O)NC3=O)C4=O)cn2)c1 (centres unmarked) [I-95, 6-(5-Cyanopyrazolo[3,4-b]pyridin-1-yl)-4-(cyclopropylamino)-N-[3-[2-[2-[[2-[2-(2,6-dioxo-3-piperidyl)-1,3-dioxo-isoindolin-4-yl]oxyacetyl]amino]ethoxy]ethoxy]-2-fluoro-propyl]pyridine-3-carboxamide]",C (<20% degradation)
4,CC(C)(OCCOCCNC(=O)COc1cccc2c1C(=O)N(C1CCC(=O)NC1=O)C2=O)C(F)CNC(=O)c1cnc(-n2ncc3cc(C#N)cnc32)cc1NC1CC1 (centres unmarked) [I-101],C (<20% degradation)
5,N#Cc1cnc2c(cnn2-c2cc(NC3CC3)c(C(=O)NCC(F)COCCCCCNC(=O)COc3cccc4c3C(=O)N(C3CCC(=O)NC3=O)C4=O)cn2)c1 (centres unmarked) [I-102],C (<20% degradation)
6,CC[C@@H]1[C@H](F)C(=O)N[C@@H]1COc1nccc2cc(C(=O)NCCOCCOCCOCCOCCNC(=O)COc3cccc4c3C(=O)N(C3CCC(=O)NC3=O)C4=O)c(OC)cc12 (some centres unmarked) [I-103],C (<20% degradation)
7,"NC(=O)c1nn(-c2ccc(COCCOCCOCCOCCNC(=O)COc3cccc4c3C(=O)N(C3CCC(=O)NC3=O)C4=O)cc2)cc1NC(=O)c1coc(-c2ccnc(NCC(F)(F)F)c2)n1 (centres unmarked) [I-105, N-[3-carbamoyl-1-[4-[2-[2-[2-[2-[[2-[2-(2,6-dioxo-3-piperidyl)-1,3-dioxo-isoindolin-4-yl]oxyacetyl]amino]ethoxy]ethoxy]ethoxy]ethoxymethyl]phenyl]pyrazol-4-yl]-2-[2-(2,2,2-trifluoroethylamino)-4-pyridyl]oxazole-4-carboxamide]",A (>50% degradation)
8,Cc1ccc(NS(=O)(=O)c2ccc(CNC(=O)COCCOCCOCCOCCNC(=O)c3ccc(-n4cc(NC(=O)c5coc(-c6ccnc(NCC(F)(F)F)c6)n5)c(C(N)=O)n4)cc3)cc2)c2[nH]cc(C#N)c12 [I-113],C (<20% degradation)
9,Cc1ccc(NS(=O)(=O)c2ccc(CNC(=O)COCCOCCOCCOCCOCCNC(=O)c3ccc(-n4cc(NC(=O)c5coc(-c6ccnc(NCC(F)(F)F)c6)n5)c(C(N)=O)n4)cc3)cc2)c2[nH]cc(C#N)c12 [I-114],C (<20% degradation)
10,Cc1ncsc1-c1ccc(CNC(=O)[C@@H]2C[C@@H](O)CN2C(=O)[C@@H](NC(=O)COCCOCCOCCNC(=O)c2ccc(-n3cc(NC(=O)c4coc(-c5ccnc(NCC(F)(F)F)c5)n4)c(C(N)=O)n3)cc2)C(C)(C)C)cc1 [I-115],B (>20-50% degradation)
11,"Cc1ncsc1-c1ccc(CNC(=O)C2C[C@@H](O)CN2C(=O)[C@@H](NC(=O)COCCOCCOCCOCCOC(C)(C)C(F)CNC(=O)c2cnc(-n3ncc4cc(C#N)cnc43)cc2NC2CC2)C(C)(C)C)cc1 (stereo partly drawn) [I-118, 6-(5-Cyanopyrazolo[3,4-b]pyridin-1-yl)-4-(cyclopropylamino)-N-[2-fluoro-3-[2-[2-[2-[2-[2-[[(1S)-1-[(4R)-4-hydroxy-2-[[4-(4-methylthiazol-5-yl)phenyl]methylcarbamoyl]pyrrolidine-1-carbonyl]-2,2-dimethyl-propyl]amino]-2-oxo-ethoxy]ethoxy]ethoxy]ethoxy]ethoxy]-3-methyl-butyl]pyridine-3-carboxamide]",C (<20% degradation)
12,Cc1ncsc1-c1ccc(CNC(=O)C2C[C@@H](O)CN2C(=O)[C@@H](NC(=O)COCCOCCOCCOCCOC(C)C(F)CNC(=O)c2cnc(-n3ncc4cc(C#N)cnc43)cc2NC2CC2)C(C)(C)C)cc1 (some centres unmarked) [I-121],C (<20% degradation)
13,Cc1ncsc1-c1ccc(CNC(=O)[C@@H]2C[C@@H](O)CN2C(=O)[C@@H](NC(=O)COCCOCCOCCOCCOCC(=O)N2CCN([C@H]3CC[C@H](Oc4ncnc5sc6c(c45)[C@@H](C[C@H](O)C(N)=O)CC6)CC3)CC2)C(C)(C)C)cc1 [I-123],C (<20% degradation)
14,"Cc1ncsc1-c1ccc(CNC(=O)[C@@H]2C[C@@H](O)CN2C(=O)[C@@H](NC(=O)COCCOCCOCCOCCOCCN2CCN([C@H]3CC[C@H](Oc4ncnc5sc6c(c45)[C@@H](C[C@H](O)C(N)=O)CC6)CC3)CC2)C(C)(C)C)cc1 [I-124, (2S,4R)-1-[(2S)-2-[[2-[2-[2-[2-[2-[2-[4-[4-[[(8R)-8-[(2S)-3-amino-2-hydroxy-3-oxo-propyl]-7,8-dihydro-6H-cyclopenta[4,5]thieno[1,2-c]pyrimidin-1-yl]oxy]cyclohexyl]piperazin-1-yl]ethoxy]ethoxy]ethoxy]ethoxy]ethoxy]acetyl]amino]-3,3-dimethyl-butanoyl]-4-hydroxy-N-[[4-(4-methylthiazol-5-yl)phenyl]methyl]pyrrolidine-2-carboxamide]",C (<20% degradation)
15,"Cc1ncsc1-c1ccc(CNC(=O)[C@@H]2C[C@@H](O)CN2C(=O)[C@@H](NC(=O)COCCCCCCCCNC(=O)c2ccc(-n3cc(NC(=O)c4coc(-c5ccnc(NCC(F)(F)F)c5)n4)c(C(N)=O)n3)cc2)C(C)(C)C)cc1 [I-125, N-[3-carbamoyl-1-[4-[8-[2-[[(1S)-1-[(2S,4R)-4-hydroxy-2-[[4-(4-methylthiazol-5-yl)phenyl]methylcarbamoyl]pyrrolidine-1-carbonyl]-2,2-dimethyl-propyl]amino]-2-oxo-ethoxy]octylcarbamoyl]phenyl]pyrazol-4-yl]-2-[2-(2,2,2-trifluoroethylamino)-4-pyridyl]oxazole-4-carboxamide]",C (<20% degradation)
16,"CC[C@@H]1[C@H](F)C(=O)N[C@@H]1COc1ncc(C#Cc2ccc(C(=O)NCCOCCOCCOCCNc3cccc4c3C(=O)N(C3CCC(=O)NC3=O)C4=O)cc2)c2cc(C(N)=O)c(OC)cc12 (stereo partly drawn) [I-126, 4-[2-[4-[2-[2-[2-[2-[[2-(2,6-Dioxo-3-piperidyl)-1,3-dioxo-isoindolin-4-yl]amino]ethoxy]ethoxy]ethoxy]ethylcarbamoyl]phenyl]ethynyl]-1-[[(2S,3S,4S)-3-ethyl-4-fluoro-5-oxo-pyrrolidin-2-yl]methoxy]-7-methoxy-isoquinoline-6-carboxamide]",B (>20-50% degradation)
17,CC(C)(OCCNCCOCCNc1cccc2c1C(=O)N(C1CCC(=O)NC1=O)C2=O)C(F)CNC(=O)c1cnc(-n2ncc3cc(C#N)cnc32)cc1NC1CC1 (centres unmarked) [I-129],C (<20% degradation)
